From patent US9999622B2, “Pyrazolothiazole compound and medicine comprising same” (NIPPON SHINYAKU CO., LTD., priority 2014, dated 2018) come the findings set out here.

Counter-ions that a name gives are not always drawn.

For test [1], the target named is T1, JAK1 (Homo sapiens, UniProt P23458).
T1 construct: purchased Carna Biosciences, Inc
The test can be described thus: JAK tyrosine kinase inhibitory activity in the presence of 1 mM ATP (ELISA), JAK1. Type of test: biochemical. In short, it runs like this: (§1)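 Recombinant kinase (7.5 nM JAK1; 0.75 nM JAK2, JAK3 working dilutions) reacted 1 h at 30 °C with 1 mM ATP in Tris-HCl pH 7.5, Tween-20, DTT, on streptavidin plates. Phosphotyrosine detected by HRP anti-pTyr antibody ELISA, TMB absorbance at 450 nm; duplicate wells, DMSO as negative control.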
In general terms: In an ELISA, binding on a coated surface is turned into a signal by an enzyme label.

The test system of test [2] is Aspergillus-induced airway inflammation model. Briefly: Inhibitory effect on Aspergillus-induced airway inflammation model. Type of test: in vivo. Conditions: mice; for Inhibition rate on count of invasive eosinophil in BALF (%): oral, 10 mg/mL suspension at 10 mL/kg twice a day Day 0 to Day 9, BALF collected at Day 10; for inhibition in vivo at 10000 µg/mL, 100 mg/kg: Mus musculus, Eosinophil, po, 240 h, 10 mg/mL suspension at 10 mL/kg twice a day Day 0 to Day 9, BALF collected at Day 10, read-out: Inhibition rate on count of invasive eosinophil in BALF (%). How it is done: Aspergillus fumigatus extracts (Greer laboratories, Inc.) were adjusted to 400 μg/mL with PBS. The Aspergillus fumigatus solutions thus prepared were administered to mice as nasal drops (50 μL) on Day 0, Day 1, Day 7 and Day 8. The nasal drop was administered one hour after the administration of test compounds in the morning. The test compound was administered twice a day in the morning and evening of Day 0 to Day 9. The test compound was suspended in 0.5% methylcellulose at 10 mg/mL, and orally administered at the dosage of 10 mL/kg. The bronchoalveolar lavage fluid (BALF) was collected at Day 10, and the total white blood cell count in BALF was measured using Celltac (NIHON KOHDEN). The ratio of eosinophil in total white blood cell was calculated using ADVIA 120 (Siemens Healthcare Diagnostics), and the ratio was multiplied by the total white blood cell count to determine the eosinophil count in BALF. The inhibition rate of the test compound was determined, assuming the inhibitory ratio in the treatment with Aspergillus fumigatus extract and 0.5% methylcellulose as 0% and the inhibitory ratio in the treatment without Aspergillus fumigatus extract but with 0.5% methylcellulose as 100%.

The target of test [3] is T2, JAK3 (Homo sapiens, UniProt P52333).
T2 construct: purchased Carna Biosciences, Inc
T2 sequence (P52333 1-1124): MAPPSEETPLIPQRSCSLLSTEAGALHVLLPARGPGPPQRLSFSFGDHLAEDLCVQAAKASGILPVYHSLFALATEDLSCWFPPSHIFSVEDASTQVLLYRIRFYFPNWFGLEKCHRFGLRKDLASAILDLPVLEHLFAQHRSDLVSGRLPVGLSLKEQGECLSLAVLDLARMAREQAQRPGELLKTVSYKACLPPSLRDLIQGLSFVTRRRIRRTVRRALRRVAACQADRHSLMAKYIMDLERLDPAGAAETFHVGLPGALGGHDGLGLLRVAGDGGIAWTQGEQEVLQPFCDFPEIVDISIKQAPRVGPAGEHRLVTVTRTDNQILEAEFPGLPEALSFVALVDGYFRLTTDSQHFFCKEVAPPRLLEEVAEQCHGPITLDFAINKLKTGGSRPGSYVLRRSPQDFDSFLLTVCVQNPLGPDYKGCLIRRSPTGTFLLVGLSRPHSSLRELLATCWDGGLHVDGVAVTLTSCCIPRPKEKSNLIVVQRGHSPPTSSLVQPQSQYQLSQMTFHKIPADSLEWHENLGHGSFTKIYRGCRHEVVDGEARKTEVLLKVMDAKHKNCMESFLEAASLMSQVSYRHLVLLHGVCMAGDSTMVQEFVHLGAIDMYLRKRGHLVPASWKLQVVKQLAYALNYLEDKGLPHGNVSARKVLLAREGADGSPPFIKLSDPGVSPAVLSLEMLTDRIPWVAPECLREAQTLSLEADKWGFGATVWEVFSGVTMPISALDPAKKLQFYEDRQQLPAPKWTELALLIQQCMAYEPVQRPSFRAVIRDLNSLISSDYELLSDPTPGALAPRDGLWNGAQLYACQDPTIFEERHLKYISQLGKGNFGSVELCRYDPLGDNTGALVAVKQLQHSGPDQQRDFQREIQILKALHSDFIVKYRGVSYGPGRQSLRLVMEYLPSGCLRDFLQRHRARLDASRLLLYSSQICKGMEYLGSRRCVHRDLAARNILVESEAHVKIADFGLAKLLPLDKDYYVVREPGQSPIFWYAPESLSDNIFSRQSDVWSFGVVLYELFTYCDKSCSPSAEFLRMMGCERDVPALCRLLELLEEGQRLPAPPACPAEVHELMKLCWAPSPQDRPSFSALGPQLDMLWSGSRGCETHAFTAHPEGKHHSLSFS
Briefly: JAK tyrosine kinase inhibitory activity in the presence of 1 mM ATP (ELISA), JAK3. It counts as biochemical. An outline of the steps: as §1

In test [4] the target is T3, JAK2 (Homo sapiens, UniProt O60674).
T3 construct: purchased Carna Biosciences, Inc
T3 sequence (O60674 whole entry): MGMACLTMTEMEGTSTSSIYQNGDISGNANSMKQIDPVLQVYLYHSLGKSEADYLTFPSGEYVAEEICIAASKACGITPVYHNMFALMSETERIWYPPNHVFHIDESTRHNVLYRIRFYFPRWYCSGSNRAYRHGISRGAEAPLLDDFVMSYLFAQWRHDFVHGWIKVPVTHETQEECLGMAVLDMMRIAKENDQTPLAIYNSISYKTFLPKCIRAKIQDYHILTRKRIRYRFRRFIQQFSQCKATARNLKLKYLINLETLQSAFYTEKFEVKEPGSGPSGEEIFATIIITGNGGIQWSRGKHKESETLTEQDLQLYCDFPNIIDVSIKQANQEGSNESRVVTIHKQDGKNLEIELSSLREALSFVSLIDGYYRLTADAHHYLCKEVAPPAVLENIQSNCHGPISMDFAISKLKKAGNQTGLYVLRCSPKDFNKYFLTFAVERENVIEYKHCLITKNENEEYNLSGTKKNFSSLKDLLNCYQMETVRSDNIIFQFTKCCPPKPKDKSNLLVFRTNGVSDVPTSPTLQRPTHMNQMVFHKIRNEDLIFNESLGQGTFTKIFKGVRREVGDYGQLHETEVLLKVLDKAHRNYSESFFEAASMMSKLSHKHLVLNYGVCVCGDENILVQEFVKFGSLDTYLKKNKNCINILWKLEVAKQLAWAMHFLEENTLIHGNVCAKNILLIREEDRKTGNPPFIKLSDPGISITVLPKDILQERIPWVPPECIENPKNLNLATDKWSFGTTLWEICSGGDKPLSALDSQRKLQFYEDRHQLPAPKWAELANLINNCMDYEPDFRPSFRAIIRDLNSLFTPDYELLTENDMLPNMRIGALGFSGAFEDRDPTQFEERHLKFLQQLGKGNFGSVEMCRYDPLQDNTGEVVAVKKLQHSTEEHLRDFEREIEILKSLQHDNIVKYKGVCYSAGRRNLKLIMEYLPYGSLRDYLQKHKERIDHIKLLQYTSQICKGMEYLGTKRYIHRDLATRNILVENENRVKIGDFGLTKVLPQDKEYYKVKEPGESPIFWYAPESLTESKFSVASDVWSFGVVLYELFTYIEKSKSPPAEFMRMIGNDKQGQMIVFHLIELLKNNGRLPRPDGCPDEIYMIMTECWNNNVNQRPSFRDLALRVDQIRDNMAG
The test can be described thus: JAK tyrosine kinase inhibitory activity in the presence of 1 mM ATP (ELISA), JAK2. Type of test: biochemical. In short, it runs like this:
as §1

For orientation: IC50 means the concentration that inhibits the measured activity by half.

T1 sequence (P23458 whole entry): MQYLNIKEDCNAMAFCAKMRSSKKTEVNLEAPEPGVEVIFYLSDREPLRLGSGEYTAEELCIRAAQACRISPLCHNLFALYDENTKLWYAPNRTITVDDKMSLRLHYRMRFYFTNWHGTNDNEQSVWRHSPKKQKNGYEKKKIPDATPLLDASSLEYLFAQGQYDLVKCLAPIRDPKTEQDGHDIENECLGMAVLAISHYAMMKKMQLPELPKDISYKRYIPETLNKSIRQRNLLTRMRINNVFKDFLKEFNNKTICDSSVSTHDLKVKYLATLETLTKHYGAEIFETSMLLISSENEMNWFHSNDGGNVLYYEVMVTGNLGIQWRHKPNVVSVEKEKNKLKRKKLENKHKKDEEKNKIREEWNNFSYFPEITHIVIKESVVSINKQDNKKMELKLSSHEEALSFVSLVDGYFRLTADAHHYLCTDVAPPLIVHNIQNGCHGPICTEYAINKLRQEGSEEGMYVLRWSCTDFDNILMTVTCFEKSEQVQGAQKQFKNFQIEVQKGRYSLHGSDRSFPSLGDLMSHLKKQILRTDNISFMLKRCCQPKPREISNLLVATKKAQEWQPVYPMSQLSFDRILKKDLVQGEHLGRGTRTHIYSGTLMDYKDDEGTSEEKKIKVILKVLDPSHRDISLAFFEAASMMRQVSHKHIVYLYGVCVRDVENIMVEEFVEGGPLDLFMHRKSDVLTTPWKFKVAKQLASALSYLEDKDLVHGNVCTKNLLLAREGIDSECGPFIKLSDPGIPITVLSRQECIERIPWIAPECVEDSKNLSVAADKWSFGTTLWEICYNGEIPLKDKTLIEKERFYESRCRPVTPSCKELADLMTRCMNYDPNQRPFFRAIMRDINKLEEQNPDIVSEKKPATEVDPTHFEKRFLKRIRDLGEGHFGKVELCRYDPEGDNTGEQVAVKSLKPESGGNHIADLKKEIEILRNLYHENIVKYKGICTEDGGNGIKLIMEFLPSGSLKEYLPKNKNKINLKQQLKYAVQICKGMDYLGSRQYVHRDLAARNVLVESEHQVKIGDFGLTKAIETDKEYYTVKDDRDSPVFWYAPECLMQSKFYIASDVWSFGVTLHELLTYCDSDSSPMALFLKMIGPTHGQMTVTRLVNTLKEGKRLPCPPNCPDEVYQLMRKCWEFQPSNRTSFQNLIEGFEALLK

On to `CC[C@@H](C)Nc1cc(C(=O)N2CCC(NC(=O)OC)CC2)nc(-c2cnn3ccsc23)n1.Cl` [Example 127, Methyl [1-({6-[(2R)-butan-2-ylamino]-2-(pyrazolo[5,1-b][1,3]thiazol-7-yl)pyrimidin-4-yl}carbonyl)piperidin-4-yl]carbamate hydrochloride], for which the IC50 in test [1] was 590 nM. In addition, the “Inhibition rate on count of invasive eosinophil in BALF (%)” value (shortened to “Inhibition rate on count … (%)”) in test [2] stood at 38%.

As for `CCOC(=O)NC1CCN(C(=O)c2cc(N[C@H](C)C3CC3)nc(-c3cnn4ccsc34)n2)CC1` [Example 73, Ethyl (1-{[6-{[(1R)-1-cyclopropylethyl]amino}-2-(pyrazolo[5,1-b][1,3]thiazol-7-yl)pyrimidin-4-yl]carbonyl}piperidin-4-yl)carbamate], the IC50 in test [3] amounted to 2200 nM; in test [4] it was 3200 nM; in test [1] it was 73 nM. Further, the “Inhibition rate on count … (%)” value in test [2] came out at 64%.

Consider `COC(=O)NC1CCN(C(=O)c2cc(N[C@H](C)C(C)C)nc(-c3cnn4ccsc34)n2)CC1` [Example 24, Methyl (1-{[6-{[(2R)-3-methylbutan-2-yl]amino}-2-(pyrazolo[5,1-b][1,3]thiazol-7-yl)pyrimidin-4-yl]carbonyl}piperidin-4-yl)carbamate hydrochloride], for which the IC50 was 4200 nM in test [3], 1500 nM in test [4] and 290 nM in test [1]. In addition, the inhibition in vivo at 10000 µg/mL, 100 mg/kg in test [2] worked out at 35%.

Turning to `COC(=O)NC1CCN(C(=O)c2cc(N[C@@H](C)C(C)C)nc(-c3cnn4ccsc34)n2)CC1` [Example 25, Methyl (l-{[6-{[(2S)-3-methylbutan-2-yl]amino}-2-(pyrazolo[5,1-b][1,3]thiazol-7-yl)pyrimidin-4-yl]carbonyl}piperidin-4-yl)carbamate hydrochloride], the IC50 in test [3] is 2000 nM; in test [4] it was 800 nM; in test [1], 200 nM. In addition, the inhibition in vivo at 10000 µg/mL, 100 mg/kg in test [2] was found to be 30%.

As for `COC(=O)NC1CCN(C(=O)c2cc(N[C@@H](C)C(C)(C)C)nc(-c3cnn4ccsc34)n2)CC1` [Example 22, Methyl (1-{[6-{[(2S)-3,3-dimethylbutan-2-yl]amino}-2-(pyrazolo[5,1-b][1,3]thiazol-7-yl)pyrimidin-4 yl]carbonyl}piperidin-4-yl)carbamate], the IC50 in test [3] is 3700 nM; in test [4] it was 800 nM; in test [1], 130 nM. In test [2], the inhibition in vivo at 10000 µg/mL, 100 mg/kg came out at 57%.

On to `C[C@H](Nc1cc(C(=O)N2CCC(NC(=O)C3CC3)CC2)nc(-c2cnn3ccsc23)n1)C1CC1` [Example 1, N-(1-{[6-{[(1S)-1-Cyclopropylethyl]amino}-2-(pyrazolo[5,1-b][1,3]thiazol-7-yl)pyrimidin-4-yl]carbonyl}piperidin-4-yl)cyclopropanecarboxamide hydrochloride], for which the IC50 in test [3] turned out to be 3400 nM; in test [4], 3400 nM; in test [1] it was 52 nM. Also, in test [2], the inhibition in vivo at 10000 µg/mL, 100 mg/kg worked out at 43%.

With `CC[C@H](C)Nc1cc(C(=O)N2CCC(NC(=O)OC)CC2)nc(-c2cnn3ccsc23)n1` [Example 125, Methyl [1-({6-[(2S)-butan-2-ylamino]-2-(pyrazolo[5,1-b][1,3]thiazol-7-yl)pyrimidin-4-yl}carbonyl)piperidin-4-yl]carbamate hydrochloride], the IC50 in test [3] is more than 10000 nM; in test [4], 4700 nM; in test [1], 210 nM. Further, the inhibition in vivo at 10000 µg/mL, 100 mg/kg in test [2] turned out to be 35%.

Take `COC(=O)NC1CCN(C(=O)c2cc(NCC(C)(C)C)nc(-c3cnn4ccsc34)n2)CC1` [Example 87, Methyl [1-({6-[(2,2-dimethylpropyl)amino]-2-(pyrazolo[5,1-b][1,3]thiazol-7-yl)pyrimidin-4-yl}carbonyl)piperidin-4-yl]carbamate hydrochloride]: the IC50 in test [3] was determined as 9500 nM; in test [4], 1600 nM; in test [1] it was 250 nM. In test [2], the inhibition in vivo at 10000 µg/mL, 100 mg/kg was 24%.

On to `COC(=O)NC1CCN(C(=O)c2cc(N[C@@H](C)C3CC3)nc(-c3cnn4ccsc34)n2)CC1.Cl` [Example 27, Methyl (1-{[6-{[(1S)-1-cyclopropylethyl]amino}-2-(pyrazolo[5,1-b][1,3]thiazol-7-yl)pyrimidin-4-yl]carbonyl}piperidin-4-yl)carbamate hydrochloride], for which the IC50 in test [3] was 4300 nM; in test [4] it was 2500 nM; in test [1], 140 nM. Further, the “Inhibition rate on count … (%)” value in test [2] is 62%.

As for `C[C@H](Nc1cc(C(=O)N2CCC(NC(=O)c3ccccc3)CC2)nc(-c2cnn3ccsc23)n1)C1CC1` [Example 30, N-(1-{[6-{[(1S)-1-Cyclopropylethyl]amino}-2-(pyrazolo[5,1-b][1,3]thiazol-7-yl)pyrimidin-4-yl]carbonyl}piperidin-4-yl)benzamide], the IC50 in test [3] is more than 10000 nM; in test [4], 1400 nM; in test [1] it was 110 nM.

As to `O=C(NC1CCN(C(=O)c2cc(NCc3cccs3)nc(-c3cnn4ccsc34)n2)CC1)C1CC1` [Example 159, N-1-[2-(pyrazolo[5,1-b][1,3]thiazol-7-yl)-6-[(thiophen-2-yl)methyl]aminopyrimidine-4-carbonyl]piperidin-4-ylcyclopropanecarboxamide], the figures for the IC50 in test [3], in test [4] and in test [1] were more than 10000 nM, more than 10000 nM and 2600 nM, respectively.

As for `COC(=O)NC1CCN(C(=O)c2cc(N[C@@H]3CCNC3)nc(-c3cnn4ccsc34)n2)CC1` [Example 150, Methyl [1-({2-(pyrazolo[5,1-b][1,3]thiazol-7-yl)-6-[(3R)-pyrrolidin-3-ylamino]pyrimidin-4-yl}carbonyl)piperidin-4-yl]carbamate dihydrochloride], the IC50 in test [3] is more than 10000 nM; in test [4], more than 10000 nM; in test [1] it was 5200 nM.

Turning to `CC(C)OC(=O)NC1CCN(C(=O)c2cc(NC3(C)COC3)nc(-c3cnn4ccsc34)n2)CC1` [Example 139, Propan-2-yl [1-({6-[(3-methyloxetan-3-yl)amino]-2-(pyrazolo[5,1-b][1,3]thiazol-7-yl)pyrimidin-4-yl}carbonyl)piperidin-4-yl]carbamate], the values for the IC50 in test [3], in test [4] and in test [1] were 2100 nM, 2900 nM and 43 nM, respectively.

As to `COCCOC(=O)NC1CCN(C(=O)c2cc(NC(C)(C)C)nc(-c3cnn4ccsc34)n2)CC1` [Example 101], the results for the IC50 in test [3], in test [4] and in test [1] were 3100 nM, 1800 nM and 98 nM, respectively.

For the molecule `COC(=O)NC1CCN(C(=O)c2cc(N[C@@H]3CCN(C(=O)C4CC4)C3)nc(-c3cnn4ccsc34)n2)CC1` [Example 205, Methyl 1-[6-[(3R)-1-(cyclopropanecarbonyl)pyrrolidin-3-yl]amino-2-(pyrazolo[5,1-b][1,3]thiazol-7-yl)pyrimidine-4-carbonyl]piperidin-4-ylcarbamate], the values for the IC50 in test [3], in test [4] and in test [1] were more than 10000 nM, more than 10000 nM and 850 nM, respectively.
